These results are taken from patent US5066652A, “Thiomethyl and sulfinylmethyl derivatives having gastric acid antisectetory activity and pharmaceutical compositions containing them” (Chiesi Farmaceutici S.p.A., priority 1988, dated 1991).

What is called ED50 is the midpoint of the dose-response relation.

In this experiment the test system is secretion of hydrochloric acid in the stomach (Shay ulcers). Description: Antisecretory activity - Shay ulcers (pylorus-ligated rat). Type of experiment: in vivo. The conditions noted are these: for Emax / ED40: Rattus norvegicus; for Emax / ED50 / ED40: 2 h; for Emax: α=1 represents 100% inhibition of gastric acid hypersecretion, read-out: α (approximate value of intrinsic activity); for ED50: rat, pylorus ligation, intraduodenal or intravenous; for PR (potency ratio in comparison with Omeprazole): ratio of mean ED50 on the 3 parameters of test compound to mean ED50 of omeprazole; for ED40: footnote 1: ED40 value. How it is done:
Antisecretory activity--Shay ulcers The gastric secretory inhibitory activity of the compounds of general formula (I) was determined in case of hypersecretion induced in the rat by ligation of gastroduodenal junction according to the procedure described by Shay (Shay H. et al, Gasgroenterology 5, 43-61, 1945). […] Thereafter, they were fasted for 24 hours, with water ad libitum, which period was sufficient to assure a good gastric emptying, then laparectomized under light ether anesthesia, so as to allow to effect a pylorus ligation as closer as possible to the gastroduodenal junction. Two hours after the ligation, the animals were killed by means of an ether excess and stomaches were removed. Gastric contents were recovered, after filtration through a gauze, and placed in graduated test-tubes and centrifuged at 3000×g for 15 minutes. The following parameters were evaluated on the surnatant: volume (ml); pH; free acidity by conversion of pH into H^+ μEq by means of Moore table (Ann. New York Acad. Sci. 1967, 866-874); titrable acidity, by titration of an amount with 0.02N NaOH, using phenolphtalein as the indicator. […] The results were expressed as percent inhibition of hypersecretion induced by pylorus ligation in the control rats. The obtained results are reported in table 3 as: ED50 (μmol/kg) calculated on the basis of the equation of the linear tract of does-effect curves obtained with the test compounds on volume, free and titrable acidities; […]

The mark [1] stands for this setting: free acid output, read-out: ED50 free acid output.
The mark [2] stands for this setting: secretion volume, read-out: ED50 volume.
The mark [3] stands for this setting: titratable acid output, read-out: ED50 titratable acid output.

Like-named read-outs stand apart in the source and are kept apart here.

As for `Cn1ccnc1SCc1nc2ccccc2[nH]1` [IX, 1-methyl-2-(2'-benzimidazolylmethylthio)imidazole.2HCl], the Emax was 40 to 60% and the “PR (potency ratio in comparison with Omeprazole)” value was 17,2. Under setting [1], the ED50 was found to be 53.2 µmol/kg. The ED50 under setting [2] was 65 µmol/kg. The ED50 under setting [3] turned out to be 24.7 µmol/kg.
Regarding `CN(C)c1ccccc1CSc1nc2cnccc2[nH]1` [L, 2-[2'-(N,N-dimethylanilyl)methylthio]imidazo-[4,5-c]-pyridine], the Emax was determined as 100% and the “PR (potency ratio in comparison with Omeprazole)” value is 3,8. The ED50 under setting [1] amounted to 5.5 µmol/kg. For the same compound, under setting [2], the ED50 was determined as 19.7 µmol/kg. Also, the ED50 under setting [3] was found to be 6.9 µmol/kg.
With `CN(C)c1ccccc1CSc1nc2cscc2[nH]1` [LII, 2-[2'-(N,N-dimethylanilyl)methylthio)thieno-[3,4-d]-imidazole], the Emax fell in the range of 50 to 80% and the “PR (potency ratio in comparison with Omeprazole)” value is recorded as 19,6. Also, the ED50 under setting [1] was 45 µmol/kg. Moreover, under setting [2], the ED50 came to 90 µmol/kg. In addition, the ED50 under setting [3] came to 28 µmol/kg.
Turning to `COc1c(C)cnc(CSc2nccn2C)c1C` [VIII, 1-methyl-2-[2'-(3' ,5 '-dimethyl-4'-methoxypyridyl)methylthio]imidazole.2HCl], the Emax is 40 to 60% and the “PR (potency ratio in comparison with Omeprazole)” value is listed as 0,02. Further, the ED40 (free acid output, read-out: ED40 free acid output) was found to be 0.03 µmol/kg. In addition, the ED40 (secretion volume, read-out: ED40 volume) amounted to 0.12 µmol/kg. Moreover, the ED40 (titratable acid output, read-out: ED40 titratable acid output) was 0.03 µmol/kg.
Consider `Cn1ccnc1SCc1ccc2ccccc2n1` [XII, 1-methyl-2-(2'-quinolylmethylthio)imidazole.2HCl], for which the Emax came out at 100% and the “PR (potency ratio in comparison with Omeprazole)” value is recorded as 14,0. Besides, the ED50 under setting [1] was 34.7 µmol/kg. Further, the ED50 under setting [2] was found to be 43.5 µmol/kg. Under setting [3], the ED50 stood at 38.1 µmol/kg.
Taken in the same sequence, the figures for `COc1c(C)cnc(C[S+]([O-])c2nccn2C)c1C` (stereo not shown) [XIV, 1-methyl-2-[2'-(3' ,5 '-dimethyl-4'-methoxy)pyridylmethylsulfinyl]imidazole] were 60%, 7,6, 17.1 µmol/kg, 26.7 µmol/kg and 19.2 µmol/kg.
As for `CN(C)c1ccccc1C[S+]([O-])c1nccn1-c1ccccc1F` (stereo not shown) [XLI, 1-(2'-fluorophenyl)-2-[2'-(N,N-dimethylanilyl)methylsulfinyl]imidazole], the Emax is 100% and the “PR (potency ratio in comparison with Omeprazole)” value is 27,6. The ED50 under setting [1] was found to be 42.3 µmol/kg. Moreover, under setting [2], the ED50 was 124 µmol/kg. The ED50 under setting [3] amounted to 61.9 µmol/kg.
Regarding `CN(C)c1ccccc1CSc1nc2cncnc2[nH]1` [XLV, 8-[2'-(N,N-dimethylanilyl)methylthio]purine], the Emax stood at 100% and the “PR (potency ratio in comparison with Omeprazole)” value was 8,2. Further, under setting [1], the ED50 amounted to 17.8 µmol/kg. For the same compound, under setting [2], the ED50 came out at 31.2 µmol/kg. Besides, the ED50 under setting [3] came out at 19.3 µmol/kg.
Taken in the same sequence, the figures for `COc1ccc(C)nc1C[S+]([O-])c1ncnc2[nH]cnc12` (stereo not shown) [XLVI, 6-[2'-(6'-methyl-3'-methoxypyridyl)methylsulfinyl]purine] were 100%, 15,8, 33.1 µmol/kg, 52 µmol/kg and 45.8 µmol/kg.
For the compound `c1ccc(N2CCOCC2)c(CSc2nc3cccnc3[nH]2)c1` [XLVII, 2-(2'-[1'-(4-morpholinyl)phenyl]methylthio)imidazo-[4,5-b]-pyridine], the Emax fell in the range of 70 to 90% and the “PR (potency ratio in comparison with Omeprazole)” value was 28,2. Moreover, under setting [1], the ED50 came out at 42.3 µmol/kg. Further, the ED50 under setting [2] came out at 130 µmol/kg. The ED50 under setting [3] was 61.9 µmol/kg.
Regarding `c1ccc2[nH]c(CSc3nc4cccnc4[nH]3)nc2c1` [XLVIII, 2-(2'-benzimidazolylmethylthio)imidazo-[4,5-b]-pyridine], the Emax is 50 to 60% and the “PR (potency ratio in comparison with Omeprazole)” value was 110,9. In addition, the ED50 under setting [1] was 164 µmol/kg. The ED50 under setting [2] is 522 µmol/kg. Further, the ED50 under setting [3] came to 235 µmol/kg.
Take `Cn1ccnc1[S+]([O-])Cc1nc2cc(C(=O)c3ccccc3)ccc2[nH]1` (stereo not shown) [XV, 1-methyl-2-[2'-(5'-benzoyl)benzimidazolylmethylsulfinyl]imidazole]: the Emax lay in the range of 50 to 60% and the “PR (potency ratio in comparison with Omeprazole)” value is 0,5. Moreover, the ED50 under setting [1] worked out at 0.6 µmol/kg. Moreover, the ED50 under setting [2] was found to be 3 µmol/kg. Also, the ED50 under setting [3] came out at 0.7 µmol/kg.
In the case of `COc1ccnc(C[S+]([O-])c2nccn2C)c1` (stereo not shown) [XVI, 1-methyl-2-[2'-(4'-methoxypyridyl)methylsulfinyl]imidazole], the Emax fell in the range of 40 to 60% and the “PR (potency ratio in comparison with Omeprazole)” value is reported as 0,3. Moreover, the ED50 under setting [1] was determined as 0.3 µmol/kg. In addition, the ED50 under setting [2] turned out to be 2.3 µmol/kg. In addition, under setting [3], the ED50 came out at 0.3 µmol/kg.
As to `Cn1ccnc1[S+]([O-])Cc1nc2ccccc2[nH]1` (stereo not shown) [XVII, 1-methyl-2-[2'-benzimidazolylmethylsulfinyl)imidazole], the Emax lay within 70 to 90% and the “PR (potency ratio in comparison with Omeprazole)” value was 39,7. Further, under setting [1], the ED50 was 84.4 µmol/kg. Besides, the ED50 under setting [2] came out at 134 µmol/kg. Moreover, the ED50 under setting [3] was 109 µmol/kg.
Taken in the same sequence, the figures for `Cn1ccnc1[S+]([O-])Cc1ccc2ccccc2n1` (stereo not shown) [XVIII, 1-methyl-2-(2'-quinolylmethylsulfinyl)imidazole] were 100%, 14,0, 36.9 µmol/kg, 40.3 µmol/kg and 39.4 µmol/kg.
As for `COc1ccnc(CSc2nccn2-c2ccccc2)c1C` [XXIII, 1-phenyl-2-[2'-(3'-methyl-4'-methoxypyridyl)methylthio]imidazole], the Emax was found to be 70% and the “PR (potency ratio in comparison with Omeprazole)” value is on record as 43,4. The median effective dose (ED50) under setting [1] stood at 125 µmol/kg. Moreover, under setting [2], the ED50 was 125 µmol/kg. Moreover, the ED50 under setting [3] came out at 110 µmol/kg.
Regarding `CN(C)c1ccccc1CSc1nccn1-c1ccccc1Cl` [XXXI, 1-(2'-clorophenyl)-2-[2'-(N,N-dimethylanilyl)methylthio]imidazole], the Emax stood at 90% and the “PR (potency ratio in comparison with Omeprazole)” value was 18,4. In addition, the ED50 under setting [1] was 30.1 µmol/kg. In addition, under setting [2], the 50% effective dose (ED50) is 67.2 µmol/kg. For the same compound, the median effective dose (ED50) under setting [3] was determined as 55.1 µmol/kg.
`CN(C)c1ccccc1CSc1nccn1-c1ccccc1F` [XXXII, 1-(2'-fluorophenyl)-2-[2'-(N,N-dimethylanilyl)methylthio]imidazole]: the Emax was determined as 100% and the “PR (potency ratio in comparison with Omeprazole)” value is 10,1. The ED50 under setting [1] amounted to 25.5 µmol/kg. Besides, the ED50 under setting [2] amounted to 34.2 µmol/kg. In addition, under setting [3], the ED50 stood at 23.9 µmol/kg.
For `COc1ccccc1-n1ccnc1SCc1ccccc1N(C)C` [XXXIII, 1-(2'-methoxyphenyl)-2-[2'-(N,N-dimethylanilyl)methylthio]imidazole], the Emax lay within 70 to 80% and the “PR (potency ratio in comparison with Omeprazole)” value is 0,75. Further, the ED50 under setting [1] is 1.2 µmol/kg. Moreover, the ED50 under setting [2] came out at 3 µmol/kg. Moreover, under setting [3], the ED50 worked out at 2 µmol/kg.
For `CN(C)c1ccccc1CSc1nccn1-c1ccc(Cl)cc1` [XXXIV, 1-(4'-chlorophenyl)-2-[2'-(N,N-dimethylanilyl)methylthio]imidazole. 2HCl], the Emax was 100% and the “PR (potency ratio in comparison with Omeprazole)” value was 3,9. In addition, the ED50 under setting [1] is 6.1 µmol/kg. Also, the ED50 under setting [2] was 24.6 µmol/kg. Under setting [3], the ED50 came to 1.3 µmol/kg.
